According to paper PMC7672604, “Design, Synthesis, Molecular Docking, Antiapoptotic and Caspase-3 Inhibition of New 1,2,3-Triazole/Bis-2(1H)-Quinolinone Hybrids” (Molecules, 2020):
Several values for one entry are separate records, joined by “and”; a condition that tells them apart may be missing. Equal entries are not always repeated.

Experiments:
testis of I/R rats [1] = assay: TNFα in testis of I/R rats (ELISA); assay type: in vivo; details: i.p. 1 h before ischemia, dose equivalent to 30 mg NAC, mean ± S.E.M, n=6
Protocol: (§1) This section describes the methods used in the investigation of the antiapoptotic effect of the novel compounds 6a–g then supported by further histological and molecular docking studies. The antiapoptotic effect of 6a–g was evaluated through evaluation of decreasing tissue damage induced by I/R in the testis of rats in a dose equivalent to 30 mg N-acetylcysteine (NAC) as an antiapoptotic reference. The rats were subdivided into sham, I/R, NAC and treated with tested compounds groups, each group comprises of 6 rats (weighing 140–150 g). The targeted compounds 6a–g were administrated intra-peritoneal (i.p.) an hour before ischemia, which lasted for (0.5 h) then reperfusion (1 h) followed by cutting the organ (Figure 5). Different biomarkers concentrations were measured in serum to detect testis injury due to ischemia/reperfusion (I/R).
(§2) It was reported that excessive apoptosis in the testis could damage the Leydig cells and apparent decline in serum testosterone levels. Furthermore, excessive apoptosis of Leydig cells results in decreased testosterone. The assays of the apoptotic biomarkers (testicular testosterone and TNFα) were done in comparison with the sham and NAC treated group and the results were outlined in Table S4 (Supplementary Materials).
(§3) TNF-α was measured by ELISA kit (Elabscience, Houston, TX, USA). Caspase-3 was measured by ELISA kit Cusabio, Houston, TX, USA (See Supplementary Materials). Testosterone concentration in testicular samples was determined by the ELISA kit (“DRG”, Marburg, Germany) (See Supplementary Materials).

testis of I/R rats [2] = assay: Testicular TAC in testis of I/R rats; assay type: in vivo; details: i.p. 1 h before ischemia, dose equivalent to 30 mg NAC, mean ± S.E.M, n=6
Protocol: as §1
(§4) During the long testicular torsion, oxidation damage affects the testis by the production of the reactive oxygen species (ROS). Excessive generation of the ROS interacts with lipids, proteins, and nucleic acids, which has an adverse effect on cell function and damage. The testis has high cell metabolism such that excessive ROS production weakens antioxidant capacity. Malondialdehyde (MDA) is the end product of lipid peroxidation and increased MDA level has an adverse effect on sperm fertility. Furthermore, total antioxidant capacity (TAC) is the measure of the number of free radicals scavenged by a test solution, being used to evaluate the antioxidant capacity of biological samples [55]. The data collected in Table S3 (Supplementary Materials) have identified that there was a significant increase in testicular MDA with a significant decrease in testicular TAC in the I/R group as well as compounds 6d and 6f when compared to sham control and NAC groups. These findings indicate that both 6d and 6f are the worst antiapoptotic compounds compound amongst all the synthesized compounds.
TAC was assessed by the colorimetric technique using commercial kits (El-Minia, Egypt) (See Supplementary Materials). Testicular MDA, an index of lipid peroxidation, was determined by using 1,1,3,3-tetramethoxypropane as standard (See Supplementary Materials). […]
1.3.Determination of Total Antioxidant Capacity (Testicular tissue)
Free radicals or reactive oxygen species (ROS) are produced during biochemical redox reactions as part
of normal physiological cell metabolism (protection from infectious organisms) and as a response to
environmental factors such as UV light, cigarette smoke, environmental pollutants, and g-radiation. Once
formed, ROS attack cellular components causing damage to lipids, proteins, and DNA which can initiate
Antioxidants in the sample reduce dark blue-green colored ABTS radical to colorless reduced ABTS
form. The change of absorbance at 660 nm is related with total antioxidant level of the sample. The assay
is calibrated with a stable antioxidant standard solution which is traditionally named as Trolox
Equivalent that is a vitamin E analog.
The determination of the antioxidative capacity is performed by the reaction of antioxidants in the
sample with a defined amount of exogenously provide hydrogen peroxide (H2O2) The antioxidants in the
sample eliminate a certain amount of the provided hydrogen peroxide. The residual H2O2 is determined
(1 picture or pasted object on this page, not shown here)
colorimetrically by an enzymatic reaction which involves the conversion of 3,5,dichloro–2–hydroxy
benzensulphonate to a colored product.
* Dilute R11000 times immediately before use (10 μl R1 + 10 ml d. Water mix Discard after use.
*Working Reagent: mix equal volumes of R2 and R3 immediately before use.
*Dilute sample if necessary
Total Antioxidant concentration […]

testis of I/R rats [3] = assay: Testicular MDA in testis of I/R rats; assay type: in vivo; details: i.p. 1 h before ischemia, dose equivalent to 30 mg NAC, mean ± S.E.M, n=6
Protocol: as §1, §4
TAC was assessed by the colorimetric technique using commercial kits (El-Minia, Egypt) (See Supplementary Materials). Testicular MDA, an index of lipid peroxidation, was determined by using 1,1,3,3-tetramethoxypropane as standard (See Supplementary Materials).

caspase-3 = assay: Caspase-3 level in serum of testicular I/R rats (ELISA); assay type: in vivo; details: mean ± S.E.M, n=6
Protocol: as §1
Caspases can delay apoptosis, implicating a potential role in drug screening efforts. Therefore, we studied the mechanism of the caspase-3 inhibition activity. Caspase-3 was assayed in the serum of rats treated with 6a–g in comparison with sham and the NAC treated group, as shown in Table S5 (Supplementary Materials).
as §3

testis of I/R rats [4] = assay: Testicular testosterone in testis of I/R rats (ELISA); assay type: in vivo; set-up: unit not given here; details: i.p. 1 h before ischemia, dose equivalent to 30 mg NAC, mean ± S.E.M, n=6
Protocol: as §1, §2, §3
1.2.Determination of serum testosterone using ELISA kit
This ELISA kit uses the Competitive-ELISA principle. The micro ELISA plate provided in this kit has been pre-coated with T. During the reaction, T in the sample or standard competes with a fixed amount of T on the solid phase supporter for sites on the Biotinylated Detection Ab specific to T. Excess conjugate and unbound sample or standard are washed from the plate, and Avidin conjugated to Horseradish Peroxidase (HRP) are added to each microplate well and incubated. Then a TMB substrate solution is added to each well. The enzyme-substrate reaction is terminated by the addition of stop solution and the color change is measured spectrophotometrically at a wavelength of 450 nm ± 2 nm. The concentration of T in the samples is then determined by comparing the OD of the samples to the standard […]
Serum: Allow samples to clot for 2 hours at room temperature or overnight at 4℃ before centrifugation for 20 min at 1000×g at 2-8℃. Collect the supernatant to carry out the assay. Blood collection tubes should be disposable and be non-endotoxin. […]
1. Bring all reagents to room temperature (18~25℃) before use. Follow the Microplate reader manual for set-up and preheat it for 15 min before OD measurement.
2. Wash Buffer: Dilute 30 mL of Concentrated Wash Buffer with 720 mL of deionized or distilled water to prepare 750 mL of Wash Buffer. Note: if crystals have formed in the concentrate, warm it in a 40℃ water-bath and mix it gently until the crystals have completely dissolved.
3. Standard working solution: Centrifuge the standard at 10,000×g for 1min. Add 1.0mL of Reference Standard &Sample Diluent, let it stand for 10min and invert it gently several times. After it dissolves fully, mix it thoroughly with a pipette. This reconstitution produces a working solution of 20 ng/mL. Then make serial dilutions as needed. The recommended dilution gradient is as […]
Dilution method: Take 7 EP tubes, add 500uL of Reference Standard & Sample Diluent to each tube. Pipette 500uL of the 20 ng/mL working solution to the first tube and mix up to produce a 10 ng/mL working solution. Pipette 500uL of the solution from the former tube to the latter one according to this step. The illustration below is for reference. Note: the last tube is regarded as a blank. Don’t pipette solution into it from the former tube.

Row | SMILES | melting point [°C] | TNF-α (testis of I/R rats [1]) [pg/mL] | Testicular TAC (testis of I/R rats [2]) | Testicular MDA (testis of I/R rats [3]) | Caspase-3 level (caspase-3) [ng/mL] | Testicular testosterone (testis of I/R rats [4])
1 | CC(=O)N[C@@H](CS)C(=O)O [NAC, N-acetylcysteine, reference compound] |  | 93.39 ± 4.59 | 4.45 mmol/g tissue and 4.45±0.40 mmol/g tissue | 67.58 nmol/g tissue and 67.58±3.76 nmol/g tissue | 2.54 ± 0.22 | 
2 | COc1ccc2[nH]c(=O)cc(OCc3cn(-c4cc(=O)[nH]c5ccccc45)nn3)c2c1 [6g, 6-Methoxy-4-((1-(2-oxo-1,2-dihydroquinolin-4-yl)-1H-1,2,3-triazol-4-yl)methoxy)quinolin-2-(1H)-one] | 300 to 302 | 192.00 ± 6.31 | 3.34±0.21 mmol/g tissue | 89.59±5.58 nmol/g tissue | 6.99 ± 0.24 | 3.45±0.22
3 | COc1ccc2[nH]c(=O)cc(-n3cc(COc4cc(=O)[nH]c5ccccc45)nn3)c2c1 [6c, 6-Methoxy-4-(4-(((2-oxo-1,2-dihydroquinolin-4-yl)oxy)methyl)-1H-1,2,3-triazol-1-yl)-quinolin-2(1H)-one] | 295 to 297 | 106.70 ± 4.75 | 4.78±0.39 mmol/g tissue | 64.93±4.50 nmol/g tissue | 2.39 ± 0.23 | 5.00±0.26
4 | Cn1c(=O)cc(-n2cc(COc3cc(=O)[nH]c4ccccc34)nn2)c2ccccc21 [6d, 1-Methyl-4-(4-(((2-oxo-1,2-dihydroquinolin-4-yl)oxy)methyl)-1H-1,2,3-triazol-1-yl)quinolin-2(1H)-one] | 285 to 287 | 234.50 ± 6.15 | 1.89±0.29 mmol/g tissue | 117.50 ± 3.71 nmol/g tissue | 15.28 ± 1.51 | 2.67±0.25

Now from value to compound, other results behind:

Row | melting point [°C] | SMILES | TNF-α (testis of I/R rats [1]) [pg/mL] | Testicular TAC (testis of I/R rats [2]) | Testicular MDA (testis of I/R rats [3]) | Caspase-3 level (caspase-3) [ng/mL] | Testicular testosterone (testis of I/R rats [4])
5 | 272 to 274 | Cc1ccc2[nH]c(=O)cc(OCc3cn(-c4cc(=O)[nH]c5ccccc45)nn3)c2c1 [6e, 6-Methyl-4-((1-(2-oxo-1,2-dihydroquinolin-4-yl)-1H-1,2,3-triazol-4-yl)methoxy)quinolin-2(1H)-one] | 188.90 ± 6.82 | 3.34±0.25 mmol/g tissue | 85.00±6.46 nmol/g tissue | 7.86 ± 0.28 | 3.62±0.17
6 | 270 to 272 | Cc1ccc2[nH]c(=O)cc(OCc3cn(-c4cc(=O)[nH]c5ccc(C)cc45)nn3)c2c1 [6f, 6-Methyl-4-((1-(6-methyl-2-oxo-1,2-dihydroquinolin-4-yl)-1H-1,2,3-triazol-4-yl)meth-oxy)quinolin-2(1H)-one] | 237.90 ± 4.52 | 1.73±0.25 mmol/g tissue | 117.00±3.46 nmol/g tissue | 16.34 ± 1.49 | 1.83±0.14
